Reference: patent publication US20200069592A1, “HSP90 INHIBITOR ORAL FORMULATIONS AND RELATED METHODS” (Samus Therapeutics, Inc., priority 2017, published 2020)

Experiment: Plasma pharmacokinetics after single PO or IV administration (Example 5), LC-MS/MS
Conditions: for Tmax / AUC(0-t) / Cmax: female, rat, plasma, free base; for Tmax: Tmax (hr) Mean ± StdDev; for AUC(0-t): AUC0-last (hr*ng/mL) Mean ± StdDev; for Cmax: Cmax (ng/mL) Mean ± StdDev
[1] = 24 mg/kg PO, Group 1 (ORA-plus) relative to Group 5 (citrate buffer-Captisol)
[2] = 36 mg/kg PO, Group 2 (ORA-plus) relative to Group 6 (citrate buffer-Captisol)
[3] = 48 mg/kg PO, Group 3 (ORA-plus) relative to Group 7 (citrate buffer-Captisol)
[4] = 60 mg/kg PO, Group 4 (ORA-plus) relative to Group 8 (citrate buffer-Captisol)
[5] = Sprague Dawley, po, 24 mg/kg, Group 5: 24 mg/kg PO, 60 mM Citric acid buffer + 30% Captisol
[6] = Sprague Dawley, po, 36 mg/kg, Group 2: 36 mg/kg PO, ORA-Plus
[7] = Sprague Dawley, po, 36 mg/kg, Group 6: 36 mg/kg PO, 60 mM Citric acid buffer + 30% Captisol
[8] = Sprague Dawley, po, 48 mg/kg, Group 3: 48 mg/kg PO, ORA-Plus
[9] = Sprague Dawley, po, 48 mg/kg, Group 7: 48 mg/kg PO, 60 mM Citric acid buffer + 30% Captisol
[10] = Sprague Dawley, po, 60 mg/kg, Group 4: 60 mg/kg PO, ORA-Plus
[11] = Sprague Dawley, po, 60 mg/kg, Group 8: 60 mg/kg PO, 60 mM Citric acid buffer + 30% Captisol
[12] = Sprague-Dawley, iv, 12 mg/kg, Group 9: 12 mg/kg IV, 5 mM Citric acid buffer + 15% Captisol
[13] = Sprague-Dawley, iv, 24 mg/kg, Group 10: 24 mg/kg IV, 5 mM Citric acid buffer + 15% Captisol
[14] = Sprague-Dawley, po, 24 mg/kg, Group 1: 24 mg/kg PO, ORA-Plus, single dose

Experimental: The animals used in this study were female Sprague Dawley Rats physiologically normal. At the time of receipt, mice were 200-225 g in weight. […] Ninety-four total animals were observed thereafter. The parenteral administration is performed by tail vein injection.
Compound 2 was provided in free base form and stored at −20° C., protected from light. Compound 2 was formulated in dosage form immediately prior to use. For oral administration of Compound 2 in ORA-Plus® drinking solution, Compound 2 was suspended in drinking solution ORA-Plus® (Perrigo; Minneapolis, Minn.). First, a mortar and pestle were used to smooth out the Compound 2 powder, then a small amount of ORA-Plus® was added, and next, the mixture was triturated to a thick, smooth paste. The remainder of the ORA-Plus® was added by geometric dilution. The Compound 2 free base and ORA-Plus® mixture was dispensed in a tight, light resistant amber bottle with appropriate labeling. This mixture was shaken well before using, protected from light and kept refrigerated if dosing was delayed. For oral administration of Compound 2 in citric acid buffer with Captisol®, Compound 2 free base powder was dissolved or suspended into 30% Captisol® (Cydex Pharmaceuticals; Lawrence, Kans.) in 60 mM citrate buffer (pH˜4.2) (citric acid and sodium citrate dehydrate (Sigma-Aldrich; St. Louis Mo.)) in sterile water) to each group's working concentration. […] A magnetic stir-bar was used to mix dosing solution, followed by sonication. For intravenous administration, Compound 2 free base powder was dissolved into 15% Captisol® in 5 mM citrate buffer (pH˜4.2) to each group's working concentration. A magnetic stirbar was used to mix dosing solution, followed by sonication. IV dosing solution of Compound 2 free base was filtered with a 0.2 m PVDF filter (Pall Life Sciences; Port Washington, N.Y.) prior to administration.
Dose levels of Compound 1 were based on the free base, not the salt.
Animals were randomized using random equilibration of body weights on Day 1 into one of 19 study groups, as shown in Table 23 (Groups 1-19), with 5 animals in each group, except for the 4 animals in Group 19. Body weights were collected Days 1, 2, 3, and/or 4 to accommodate data collection of staggered groups. Gross observations of body weight were noted during the course of the study.

With CC(C)(C)CNCCn1c(Sc2cc3c(cc2I)OCO3)nc2c(N)ncnc21 [Compound 2] the “% AUC0-last (hr*ng/mL) ORA vs Citrate Mean ± StdDev” value (from here on “% AUC0-last (hr*ng/mL) ORA”) [1] was 48.63 ± 15.03%, the “% Cmax (ng/mL) ORA vs Citrate Mean ± StdDev” value (shortened to “% Cmax (ng/mL) ORA”) [1] was 47.65 ± 16.52% and the “% AUC0-last (hr*ng/mL) ORA” value [2] was 91.18 +/− 72.46%. The “% Cmax (ng/mL) ORA” value [2] was 89.97 +/− 82.63%, the “% AUC0-last (hr*ng/mL) ORA” value [3] was 94.75 +/− 64.83% and the “% Cmax (ng/mL) ORA” value [3] was 99.04 +/− 80.01%. For the same molecule, the “% AUC0-last (hr*ng/mL) ORA” value [4] was 75.93 +/− 63.12%, the “% Cmax (ng/mL) ORA” value [4] was 83.99 +/− 73.13% and the Tmax (Sprague Dawley, iv, 12 mg/kg, Group 9: 12 mg/kg IV, 5 mM Citric acid buffer + 15% Captisol) was 0.25 h. It also gave an AUC(0-t) [5] of 2010 ± 176 ng·h/mL, a Cmax [5] of 685 ± 109 ng/mL and a Tmax [5] of 1.8 ± 0.45 h. It also gave an AUC(0-t) [6] of 2680 ± 811 ng·h/mL, an AUC(0-t) [7] of 2940 ± 1570 ng·h/mL and a Cmax [6] of 747 ± 238 ng/mL. The Cmax [7] was 831 ± 618 ng/mL, the Tmax [6] was 1.5 ± 1.41 h and the Tmax [7] was 2.4 ± 2.07 h. It also gave an AUC(0-t) [8] of 5220 ± 2760 ng·h/mL, an AUC(0-t) [9] of 5510 ± 2590 ng·h/mL and a Cmax [8] of 1240 ± 519 ng/mL. The Cmax [9] was 1400 ± 626 ng/mL, the Tmax [8] was 2.7 ± 1.79 h and the Tmax [9] was 1.4 ± 0.55 h. For the same molecule, the AUC(0-t) [10] was 3560 ± 906 ng·h/mL, the AUC(0-t) [11] was 4750 ± 3070 ng·h/mL and the Cmax [10] was 909 ± 302 ng/mL. For the same molecule, the Cmax [11] was 1080 ± 584 ng/mL, the Tmax [10] was 3 ± 2.74 h and the Tmax [11] was 4.4 ± 1.67 h. The AUC(0-t) [12] was 3390 ± 402 ng·h/mL, the Cmax [12] was 2360 ± 92.7 ng/mL and the AUC(0-t) [13] was 7500 ± 552 ng·h/mL. The Cmax [13] was 5110 ± 416 ng/mL, the Tmax [13] was 0.25 h and the AUC(0-t) [14] was 975 ± 304 ng·h/mL. The Cmax [14] was 321 ± 111 ng/mL and the Tmax [14] was 0.9 ± 0.22 h.
